Assay in all cases: biochemical
Common to all, as to parameters: KINOMEscan scanMAX active site-directed competition binding assay, percent of control, 468 kinases
Holding throughout (conditions): competition binding, percent of control

For one assay, the target named is KIT(D816V) (Homo sapiens, UniProt P10721, D816V). Put shortly: (§1)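 Single-concentration screen (100 μM S-carvone) in a competition binding panel of 468 human kinases (KINOMEscan scanMAX); results given as percent of control, hit cutoff 35%.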
Another assay concerns the target PDGFRA (Homo sapiens, UniProt P16234). Put shortly: as §1
In a further assay the target is INSR (Homo sapiens, UniProt P06213). A digest of the protocol: as §1
Chain of INSR (P06213 whole entry): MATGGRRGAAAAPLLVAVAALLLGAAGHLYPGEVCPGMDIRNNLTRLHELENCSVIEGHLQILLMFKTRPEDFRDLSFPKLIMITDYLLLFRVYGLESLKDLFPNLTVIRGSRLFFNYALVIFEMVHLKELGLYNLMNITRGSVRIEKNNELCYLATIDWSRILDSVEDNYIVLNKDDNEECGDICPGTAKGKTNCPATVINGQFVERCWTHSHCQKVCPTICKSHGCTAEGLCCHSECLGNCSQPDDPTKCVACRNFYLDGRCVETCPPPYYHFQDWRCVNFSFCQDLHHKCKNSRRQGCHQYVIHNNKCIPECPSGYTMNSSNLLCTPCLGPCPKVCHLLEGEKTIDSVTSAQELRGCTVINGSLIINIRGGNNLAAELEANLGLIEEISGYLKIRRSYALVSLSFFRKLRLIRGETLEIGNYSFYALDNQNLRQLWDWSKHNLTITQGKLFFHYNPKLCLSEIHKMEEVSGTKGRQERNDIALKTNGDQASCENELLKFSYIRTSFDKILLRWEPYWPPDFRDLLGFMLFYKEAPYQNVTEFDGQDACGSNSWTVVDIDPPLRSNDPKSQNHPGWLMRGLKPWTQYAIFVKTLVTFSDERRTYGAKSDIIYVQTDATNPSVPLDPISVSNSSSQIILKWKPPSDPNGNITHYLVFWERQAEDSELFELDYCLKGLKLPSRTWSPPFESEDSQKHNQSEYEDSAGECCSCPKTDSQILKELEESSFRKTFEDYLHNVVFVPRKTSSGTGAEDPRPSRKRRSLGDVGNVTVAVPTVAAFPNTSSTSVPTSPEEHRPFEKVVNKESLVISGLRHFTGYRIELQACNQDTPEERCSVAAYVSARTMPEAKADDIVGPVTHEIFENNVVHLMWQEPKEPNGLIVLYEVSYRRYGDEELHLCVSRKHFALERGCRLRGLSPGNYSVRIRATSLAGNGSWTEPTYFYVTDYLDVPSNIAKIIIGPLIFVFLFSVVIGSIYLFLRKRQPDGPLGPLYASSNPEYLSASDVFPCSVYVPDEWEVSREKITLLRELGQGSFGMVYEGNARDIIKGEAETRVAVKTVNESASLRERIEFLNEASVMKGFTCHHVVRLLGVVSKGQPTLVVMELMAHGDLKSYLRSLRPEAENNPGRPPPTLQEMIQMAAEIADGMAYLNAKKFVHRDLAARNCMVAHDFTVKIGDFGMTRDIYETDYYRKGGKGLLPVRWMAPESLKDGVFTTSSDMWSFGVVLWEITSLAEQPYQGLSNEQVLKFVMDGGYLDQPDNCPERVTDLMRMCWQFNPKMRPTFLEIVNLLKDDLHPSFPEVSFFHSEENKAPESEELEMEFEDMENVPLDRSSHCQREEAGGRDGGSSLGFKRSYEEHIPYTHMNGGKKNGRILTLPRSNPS
The next assay has as its target LIMK1 (Homo sapiens, UniProt P53667). A digest of the protocol: as §1
A further assay has as its target PIK3CA(I800L) (Homo sapiens, UniProt P42336, I800L). Put shortly: as §1
The target in another assay is PIK3CA (Homo sapiens, UniProt P42336). A digest of the protocol:
as §1

A further assay concerns the target TLK2 (Homo sapiens, UniProt Q86UE8). Put shortly: as §1
A further assay deals with LRRK2(G2019S) (Homo sapiens, UniProt Q5S007, G2019S). A digest of the protocol: as §1
For the next assay, the target named is PIK3CA(E545A) (Homo sapiens, UniProt P42336, E545A). A digest of the protocol: as §1
Chain of PIK3CA(E545A) (P42336 whole entry E545A): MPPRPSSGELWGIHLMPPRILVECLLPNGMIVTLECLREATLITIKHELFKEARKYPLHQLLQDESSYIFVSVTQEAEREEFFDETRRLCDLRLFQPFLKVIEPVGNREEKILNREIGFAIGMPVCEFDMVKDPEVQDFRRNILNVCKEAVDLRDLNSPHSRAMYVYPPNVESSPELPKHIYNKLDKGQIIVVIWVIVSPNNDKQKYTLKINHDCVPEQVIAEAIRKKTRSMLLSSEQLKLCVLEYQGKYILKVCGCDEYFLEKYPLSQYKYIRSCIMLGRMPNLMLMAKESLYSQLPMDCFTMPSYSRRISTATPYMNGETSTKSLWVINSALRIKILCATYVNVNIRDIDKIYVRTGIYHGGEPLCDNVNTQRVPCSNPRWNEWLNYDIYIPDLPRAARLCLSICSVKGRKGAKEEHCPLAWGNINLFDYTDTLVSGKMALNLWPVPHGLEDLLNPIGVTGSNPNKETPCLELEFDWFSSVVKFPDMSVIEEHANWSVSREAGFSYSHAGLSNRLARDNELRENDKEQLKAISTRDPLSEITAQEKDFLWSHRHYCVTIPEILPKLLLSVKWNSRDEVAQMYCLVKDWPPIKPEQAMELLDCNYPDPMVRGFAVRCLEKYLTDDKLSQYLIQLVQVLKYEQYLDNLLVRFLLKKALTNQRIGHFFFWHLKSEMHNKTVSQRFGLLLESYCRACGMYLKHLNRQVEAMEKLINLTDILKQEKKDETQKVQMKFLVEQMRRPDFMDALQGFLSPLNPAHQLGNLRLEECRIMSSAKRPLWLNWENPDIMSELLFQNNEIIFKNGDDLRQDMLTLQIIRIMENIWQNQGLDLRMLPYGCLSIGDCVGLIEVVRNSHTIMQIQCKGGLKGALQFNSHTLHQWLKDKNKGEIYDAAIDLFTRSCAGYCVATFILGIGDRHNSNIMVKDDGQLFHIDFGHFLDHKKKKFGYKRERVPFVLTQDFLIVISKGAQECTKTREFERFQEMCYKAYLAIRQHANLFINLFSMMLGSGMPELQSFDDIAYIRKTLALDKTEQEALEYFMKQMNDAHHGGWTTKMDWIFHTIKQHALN
Another assay deals with T1, PIP5K2C (Homo sapiens, UniProt Q8TBX8).
T1 construct: gene PIP4K2C
T1 sequence (Q8TBX8 whole entry): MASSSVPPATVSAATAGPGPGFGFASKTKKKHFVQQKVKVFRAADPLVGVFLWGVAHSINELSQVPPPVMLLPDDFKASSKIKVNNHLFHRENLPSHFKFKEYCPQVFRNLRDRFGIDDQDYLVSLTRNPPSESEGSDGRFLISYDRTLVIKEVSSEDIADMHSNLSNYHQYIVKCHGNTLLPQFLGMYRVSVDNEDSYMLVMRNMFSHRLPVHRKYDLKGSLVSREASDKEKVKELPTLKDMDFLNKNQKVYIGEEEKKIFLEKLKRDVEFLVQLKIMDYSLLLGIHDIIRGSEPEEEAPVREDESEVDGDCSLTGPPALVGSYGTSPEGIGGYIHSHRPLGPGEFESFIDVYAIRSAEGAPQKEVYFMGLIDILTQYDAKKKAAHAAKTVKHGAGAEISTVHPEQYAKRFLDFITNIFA
Put shortly:
as §1

The target in the next assay is PRKCD (Homo sapiens, UniProt Q05655). A digest of the protocol:
as §1

A further assay deals with MARK4 (Homo sapiens, UniProt Q96L34). A digest of the protocol: as §1
In assay [1] the target is T2, ABL1(T315I)-nonphosphorylated (Homo sapiens, UniProt P00519, T315I).
T2 construct: nonphosphorylated
Put shortly:
as §1

The target in another assay is CAMK2D (Homo sapiens, UniProt Q13557). A digest of the protocol: as §1
Chain of CAMK2D (Q13557 whole entry): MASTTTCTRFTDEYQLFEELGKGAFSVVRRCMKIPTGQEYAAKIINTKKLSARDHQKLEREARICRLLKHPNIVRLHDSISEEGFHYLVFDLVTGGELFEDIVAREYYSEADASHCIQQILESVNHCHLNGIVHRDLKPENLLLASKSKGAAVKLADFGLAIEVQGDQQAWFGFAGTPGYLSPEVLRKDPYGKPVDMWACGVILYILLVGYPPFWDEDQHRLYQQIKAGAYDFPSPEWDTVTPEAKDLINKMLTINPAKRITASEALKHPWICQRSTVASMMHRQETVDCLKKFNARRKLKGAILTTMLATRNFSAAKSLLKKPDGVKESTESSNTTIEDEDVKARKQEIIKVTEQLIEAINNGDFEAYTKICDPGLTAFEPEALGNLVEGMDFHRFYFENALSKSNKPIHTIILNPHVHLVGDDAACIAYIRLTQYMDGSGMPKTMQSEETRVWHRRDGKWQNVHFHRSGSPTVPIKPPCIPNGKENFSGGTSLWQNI
Another assay concerns the target RIPK1 (Homo sapiens, UniProt Q13546). A digest of the protocol: as §1
The next assay has as its target CDKL3 (Homo sapiens, UniProt Q8IVW4). A digest of the protocol: as §1
The next assay has as its target EGFR(E746-A750del) (Homo sapiens, UniProt P00533, DEL746-750). A digest of the protocol:
as §1

The target in another assay is CASK (Homo sapiens, UniProt O14936). A digest of the protocol: as §1
For the next assay, the target named is T3, PKAC-alpha (Homo sapiens, UniProt P17612).
T3 construct: gene PRKACA
Put shortly:
as §1

In a further assay the target is FLT3 (Homo sapiens, UniProt P36888). A digest of the protocol:
as §1

For the next assay, the target named is NEK11 (Homo sapiens, UniProt Q8NG66). A digest of the protocol: as §1

Chain of FLT3 (P36888 whole entry): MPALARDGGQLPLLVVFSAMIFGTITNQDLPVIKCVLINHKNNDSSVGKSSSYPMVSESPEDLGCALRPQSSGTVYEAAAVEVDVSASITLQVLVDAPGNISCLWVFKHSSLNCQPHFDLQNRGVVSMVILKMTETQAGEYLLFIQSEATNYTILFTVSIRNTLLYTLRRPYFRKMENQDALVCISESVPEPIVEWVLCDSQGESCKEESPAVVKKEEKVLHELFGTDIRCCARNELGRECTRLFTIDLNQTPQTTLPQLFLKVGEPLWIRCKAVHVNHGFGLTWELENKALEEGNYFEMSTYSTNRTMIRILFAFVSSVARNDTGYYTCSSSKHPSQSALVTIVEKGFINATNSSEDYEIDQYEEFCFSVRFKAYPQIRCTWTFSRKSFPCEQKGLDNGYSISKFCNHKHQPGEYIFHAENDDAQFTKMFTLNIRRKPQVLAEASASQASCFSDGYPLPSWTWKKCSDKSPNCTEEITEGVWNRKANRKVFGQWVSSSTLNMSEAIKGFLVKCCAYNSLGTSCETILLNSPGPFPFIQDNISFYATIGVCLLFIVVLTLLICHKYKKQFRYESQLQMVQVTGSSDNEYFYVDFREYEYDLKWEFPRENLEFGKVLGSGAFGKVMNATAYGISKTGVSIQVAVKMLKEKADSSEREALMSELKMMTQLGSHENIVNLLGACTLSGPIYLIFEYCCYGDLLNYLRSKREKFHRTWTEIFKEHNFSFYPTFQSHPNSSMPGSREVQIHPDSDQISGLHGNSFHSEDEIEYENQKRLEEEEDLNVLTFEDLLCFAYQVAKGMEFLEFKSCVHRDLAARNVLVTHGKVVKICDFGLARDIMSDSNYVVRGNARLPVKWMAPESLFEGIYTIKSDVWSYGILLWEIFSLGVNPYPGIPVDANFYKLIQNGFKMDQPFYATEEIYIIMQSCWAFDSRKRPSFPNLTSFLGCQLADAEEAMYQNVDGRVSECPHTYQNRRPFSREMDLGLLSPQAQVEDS
Chain of CDKL3 (Q8IVW4 whole entry): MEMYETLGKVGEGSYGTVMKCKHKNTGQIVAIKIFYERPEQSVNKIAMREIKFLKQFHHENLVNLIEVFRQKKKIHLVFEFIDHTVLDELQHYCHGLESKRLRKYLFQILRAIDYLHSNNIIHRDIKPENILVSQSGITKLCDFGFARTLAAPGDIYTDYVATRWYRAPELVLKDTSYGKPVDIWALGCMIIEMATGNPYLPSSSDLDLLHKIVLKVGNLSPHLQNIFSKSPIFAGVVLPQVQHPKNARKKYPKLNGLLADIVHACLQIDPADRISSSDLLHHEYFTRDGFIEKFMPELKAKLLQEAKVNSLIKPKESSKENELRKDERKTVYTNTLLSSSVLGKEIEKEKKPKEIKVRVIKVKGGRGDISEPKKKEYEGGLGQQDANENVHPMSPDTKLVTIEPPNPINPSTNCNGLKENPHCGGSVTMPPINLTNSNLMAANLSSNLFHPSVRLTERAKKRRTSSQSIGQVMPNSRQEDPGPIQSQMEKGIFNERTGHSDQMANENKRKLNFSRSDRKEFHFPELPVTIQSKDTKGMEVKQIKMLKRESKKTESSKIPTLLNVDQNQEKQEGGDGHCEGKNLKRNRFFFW
Chain of PIK3CA (P42336 whole entry): as the sequence (P42336 whole entry E545A) above, with A545E counted along it
Chain of PIK3CA(I800L) (P42336 whole entry I800L): as the sequence (P42336 whole entry E545A) above, with A545E, I800L counted along it

With `C=C(C)[C@H]1CC=C(C)C(=O)C1` [S-carvone], the remaining binding at 100 µM at KIT(D816V) was determined as 78%; on PDGFRA, 80%; on INSR, 68%; at LIMK1, 89%; on PIK3CA(I800L) it was 95%; at PIK3CA, 79%. The remaining binding at 100 µM at TLK2 was determined as 94%; on LRRK2(G2019S), 81%; at PIK3CA(E545A) it was 70%; on PIP5K2C it was 88%; at PRKCD, 90%; on MARK4, 73%. The remaining binding at 100 µM in assay [1] worked out at 78%; at CAMK2D it was 94%; on RIPK1, 87%; on CDKL3, 89%; on EGFR(E746-A750del), 62%; at CASK, 83%. Further, the remaining binding at 100 µM on PKAC-alpha came to 85%; at FLT3, 71%; at NEK11 it was 52%.

The record behind these values is article PMC10174618, “Monoterpenoid aryl hydrocarbon receptor allosteric antagonists protect against ultraviolet skin damage in female mice” (Nature Communications, 2023).
